Columns and labels:
TxA₂ Synthase [1] = target: T1, TxA₂ Synthase (Rattus norvegicus, UniProt P49430); assay: In vitro effects on TxB₂ production in rat whole blood during clotting (TxA₂ synthesis, RIA); type: cell-based; conditions: result in words, compared with reference compound Dazoxiben
T1 construct: Blood was withdrawn from the abdominal aorta of the animals under light ether anesthesia; from tissue; host or cells: rat whole blood (clotting, serum TxB₂ by RIA)
T1 sequence (P49430 1-533): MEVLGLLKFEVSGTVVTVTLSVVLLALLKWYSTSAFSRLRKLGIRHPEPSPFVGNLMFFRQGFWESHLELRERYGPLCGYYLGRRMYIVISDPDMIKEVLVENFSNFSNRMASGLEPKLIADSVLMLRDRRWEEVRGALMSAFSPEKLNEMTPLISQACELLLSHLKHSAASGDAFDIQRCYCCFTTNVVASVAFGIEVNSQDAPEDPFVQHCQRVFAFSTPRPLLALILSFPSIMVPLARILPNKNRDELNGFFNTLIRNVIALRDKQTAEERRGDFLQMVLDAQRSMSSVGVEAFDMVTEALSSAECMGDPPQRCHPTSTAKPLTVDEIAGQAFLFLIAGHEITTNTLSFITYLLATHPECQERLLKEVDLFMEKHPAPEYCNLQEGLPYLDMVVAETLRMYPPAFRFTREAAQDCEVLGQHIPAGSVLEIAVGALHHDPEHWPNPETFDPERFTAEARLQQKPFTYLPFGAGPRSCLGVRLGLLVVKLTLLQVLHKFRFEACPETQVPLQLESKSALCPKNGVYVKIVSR
Procedure: The compounds of formula (I) were for example tested for their ability to inhibit TxA₂ Synthase activity (as reflected by TxB₂ generated in whole blood during clotting or in isolated glomeruli) in vitro in the rat. The in vitro experiments were carried out as follows: The effect of the compounds on TxA₂ synthesis was evaluated in serum.
Blood was withdrawn from the abdominal aorta of the animals under light ether anesthesia.
Samples were then allowed to clot for 1 h at 37°C, centrifuged at 3000 rpm for 10 min, serum collected and stored at -20°C until assayed. TxB₂ levels were determined by RIA according to previously described procedures [Patrono et al. - Thromb.

TxA₂ receptor = target: T2, TxA₂ receptor (Homo sapiens, UniProt P21731); assay: [³H]-SQ 29,548 binding displacement in washed human platelets (TxA₂ antagonism); conditions: result in words, compared with Sulotroban (BM 13177)
T2 construct: endogenous in cells; host or cells: washed human platelets from healthy volunteers
T2 sequence (P21731 1-343): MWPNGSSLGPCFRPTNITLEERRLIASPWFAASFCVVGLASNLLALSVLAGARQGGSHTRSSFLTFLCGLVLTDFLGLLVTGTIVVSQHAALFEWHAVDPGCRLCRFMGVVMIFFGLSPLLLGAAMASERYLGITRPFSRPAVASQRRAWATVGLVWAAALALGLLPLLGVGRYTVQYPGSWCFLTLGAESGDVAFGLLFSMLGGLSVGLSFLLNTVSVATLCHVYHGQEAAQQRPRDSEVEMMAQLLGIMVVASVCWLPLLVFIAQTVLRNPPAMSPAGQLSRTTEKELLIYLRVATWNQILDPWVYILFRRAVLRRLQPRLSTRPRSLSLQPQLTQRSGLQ
Procedure: The experiments were carried out as follows: Blood from healthy volunteers of both sexes who had not taken any medication for at least 10 days was collected into one-tenth volume of acid citrate dextrose containing indomethacin (28 µM). Platelet rich plasma (PRP), obtained by centrifugation of the blood at 200 x g for 20 min, was washed twice (1000 x g for 10 min). The platelets were then resuspended in Tyrode-Hepes buffer (pH 7.4) to a final concentration of 5-10x10⁻⁸ cells/ml and incubated for 0-60 min at 25°C with [³H]-SQ 29,548 (5 nM). For displacement experiments various concentrations (10⁻⁹ -10⁻⁴M) of competing ligands were added and incubated for 30 min at 25°C.
Non-specific binding was determined in the presence of 50 µM U46619 and was approximately 5% of total binding of [³H]-SQ 29,548. After incubation, 4 ml of ice-cold TRIS-HCl buffer (10 mM, pH 7.4) was added to each tube and the reaction mixture was immediately filtered by suction through a Whatman GE/C glass filter disc which was washed 2 times with ice-cold TRIS-HCl (4 ml) and counted for radioactivity by a Packard-β-counter.
The binding data were analyzed by computerized non-linear curve fitting using the Ligand program and expressed as IC₅₀.

TxA₂ Synthase [2] = target: T1, TxA₂ Synthase; conditions: statement on the known compound, no data shown; cited from earlier work

Compound	inhibitory activity on TxA₂ synthesis (TxA₂ Synthase [1])	affinity for the receptor (TxA₂ receptor)	TxA₂ synthase inhibitory activity (TxA₂ Synthase [2])
Cc1ccc(CC(/C(=N/OCCCCC(=O)O)C2CCCCC2)n2ccnc2)cc1 (racemic) [FCE 27818, (±)-(E)-5-[2-(4-methylbenzyl)-2-(imidazol-1-yl)-1-cyclohexylethylidene]aminooxypentanoic acid]	marked inhibitory activity on TxA₂ synthesis significantly more potent than that of reference compound Dazoxiben	good affinity for the receptor which is better than that shown by the known compound Sulotroban (BM 13177)	–
O=C(O)COc1ccc(CCNS(=O)(=O)c2ccccc2)cc1 [BM 13177, Sulotroban]	–	–	devoid of TxA₂ synthase inhibitory activity
(±)-(E)-5-[2-benzyl-2-(imidazol-1-yl)-1-cyclohexylethylidene]-aminooxybutanohydroxamic acid [FCE 27790]	marked inhibitory activity on TxA₂ synthesis significantly more potent than that of reference compound Dazoxiben	good affinity for the receptor which is better than that shown by the known compound Sulotroban (BM 13177)	–

From patent EP0635494A1, “2-(Imidazol-1-yl)2-benzylethylidene-aminooxyalkyl-hydroxamic acid derivatives” (PHARMACIA S.p.A., priority 1993, dated 1995)
